# Experimental data: patent US9963448B2, “Bicyclic inhibitors of PAD4” (Padlock Therapeutics, Inc., priority 2015, dated 2018)
# Read-outs that look alike come from different tables or passages of the source.
# Assays:
# [1] = target: mPAD4 (Mus musculus, UniProt Q9Z183); test: mPAD4 RFMS PAD4 inhibition assay; format: biochemical; conditions: mPAD4, RFMS readout;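 for mPAD4 RFMS pIC50: grade E means pIC50 at most 4 and F means pIC50 4.0 to 5.0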
# Description: (§1) Compounds of the present invention were assayed as inhibitors of PAD4 using the assay protocol described below.
# (§2) Compound stock solutions were stored at RT. […] Final assay conditions were as follows:
# (§3) Total incubation time: 65 mins at 37° C.
# (§4) Stop solution: 40 μl 5% TCA in ACN
# (§5) The compound numbers correspond to the compound numbers in Table 1. […] The term pIC50=−log(IC50). […] “NA” stands for “not assayed.”
# [2] = target: hPAD4 (Homo sapiens, UniProt Q9UM07); test: hPAD4 RFMS (RapidFire mass spectrometry) PAD4 inhibition assay; format: biochemical; conditions: hPAD4 enzyme, RFMS readout;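 for hPAD4 RFMS pIC50: grade E means pIC50 at most 4 and F means pIC50 4.0 to 5.0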
# Sequence of hPAD4 (Q9UM07 whole entry): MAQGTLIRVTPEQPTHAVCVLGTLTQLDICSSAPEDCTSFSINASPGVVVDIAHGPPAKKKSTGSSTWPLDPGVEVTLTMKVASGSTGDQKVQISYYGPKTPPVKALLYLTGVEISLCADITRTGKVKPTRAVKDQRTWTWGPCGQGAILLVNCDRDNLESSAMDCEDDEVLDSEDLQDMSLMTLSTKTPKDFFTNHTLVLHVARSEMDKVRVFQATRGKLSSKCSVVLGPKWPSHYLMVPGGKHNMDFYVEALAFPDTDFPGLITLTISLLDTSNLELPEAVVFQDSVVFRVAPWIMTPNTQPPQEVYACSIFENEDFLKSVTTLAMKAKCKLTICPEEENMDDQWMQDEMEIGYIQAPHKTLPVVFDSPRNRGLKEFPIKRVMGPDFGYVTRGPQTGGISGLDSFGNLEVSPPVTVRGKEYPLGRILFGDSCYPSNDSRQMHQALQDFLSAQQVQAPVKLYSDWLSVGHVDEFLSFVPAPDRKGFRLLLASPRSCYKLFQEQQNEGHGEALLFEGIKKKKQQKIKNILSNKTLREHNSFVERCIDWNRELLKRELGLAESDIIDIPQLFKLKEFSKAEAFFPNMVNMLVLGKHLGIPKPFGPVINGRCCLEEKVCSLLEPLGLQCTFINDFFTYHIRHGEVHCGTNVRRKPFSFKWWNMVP
# Description: as §1, §2, §3, §4, §5
# [3] = pIC50=−log(IC50), read-out: mPAD4 RFMS pIC50 (converted)
# [4] = pIC50=−log(IC50), read-out: hPAD4 RFMS pIC50 (converted)
# Sequence of mPAD4 (Q9Z183 whole entry): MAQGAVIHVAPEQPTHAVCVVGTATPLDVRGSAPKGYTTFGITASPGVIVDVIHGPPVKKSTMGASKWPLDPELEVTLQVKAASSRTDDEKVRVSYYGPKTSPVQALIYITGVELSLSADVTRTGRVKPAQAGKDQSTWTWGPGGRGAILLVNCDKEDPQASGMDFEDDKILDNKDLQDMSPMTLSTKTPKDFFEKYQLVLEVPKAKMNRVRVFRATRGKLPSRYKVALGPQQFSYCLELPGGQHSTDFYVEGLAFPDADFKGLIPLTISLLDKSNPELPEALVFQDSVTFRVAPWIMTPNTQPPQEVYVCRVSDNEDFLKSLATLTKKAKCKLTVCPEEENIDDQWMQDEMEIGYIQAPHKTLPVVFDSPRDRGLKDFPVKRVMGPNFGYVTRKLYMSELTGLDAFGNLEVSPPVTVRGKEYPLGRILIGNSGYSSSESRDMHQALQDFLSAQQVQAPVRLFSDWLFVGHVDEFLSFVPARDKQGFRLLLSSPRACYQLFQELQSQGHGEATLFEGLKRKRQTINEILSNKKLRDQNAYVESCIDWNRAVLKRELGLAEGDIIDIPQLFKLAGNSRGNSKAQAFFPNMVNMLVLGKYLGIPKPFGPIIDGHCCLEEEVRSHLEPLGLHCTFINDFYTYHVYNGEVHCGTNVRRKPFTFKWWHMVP
"IC50 [1, 3] [µM]",IC50 ([1]; read-out: mPAD4 RFMS IC50) [µM],"IC50 [2, 4] [µM]",IC50 ([2]; read-out: hPAD4 RFMS IC50) [µM],mPAD4 RFMS pIC50 ([1]; pIC50=−log(IC50)),hPAD4 RFMS pIC50 ([2]; pIC50=−log(IC50)),Structure (SMILES)
1 to 10,1 to 5,< 1,< 1,,,CCn1c(-c2nc3cc(C(=O)N4C[C@H]5CC[C@@H]4[C@@H]5N)cc(OC)c3n2CCOC)cc2cccnc21 [Compound I-175]
< 1,< 1,< 1,< 1,,,COc1cc(C(=O)N2CCC[C@@H](N)C2)cc2nc(-c3cc4ccc(C(F)(F)F)nc4n3CC3CC3)n(C)c12 [Compound I-197]
1 to 10,1 to 5,1 to 10,1 to 5,,,COc1cc(C(=O)N2CCC3OCCNC3C2)cc2nc(-c3cc4cccnc4n3CC3CC3)n(C)c12 (racemic) [Compound I-83]
1 to 10,1 to 5,< 1,< 1,,,"COc1cc(C(=O)N2C[C@H]3CC[C@@H]2[C@@H]3N)cc2nc(-c3cc4cccnc4n3CC3CC3)n(CCS(C)(=O)=O)c12 [Compound I-214, (1R,4R,7R)-2-{2-[1-(cyclopropylmethyl)-1H-pyrrolo[2,3-b]pyridin-2-yl]-1-(2-methanesulfonylethyl)-7-methoxy-1H-1,3-benzodiazole-5-carbonyl}-2-azabicyclo[2.2.1]heptan-7-amine]"
,> 10,,> 10,E/F,E/F,COc1cc(C(=O)N2C[C@@H]3CC[C@H]2[C@H](N)C3)cc2nc(-c3cc4cccnc4n3CC3CC3)n(C)c12 [Compound I-215]
< 1,< 1,< 1,< 1,,,"COc1ccc2cc(-c3nc4cc(C(=O)N5CCC[C@@H](N)C5)cc(OC)c4n3C)n(CC3CC3)c2n1 [Compound I-33, (3R)-1-{2-[1-(cyclopropylmethyl)-6-methoxy-1H-pyrrolo[2,3-b]pyridin-2-yl]-7-methoxy-1-methyl-1H-1,3-benzodiazole-5-carbonyl}piperidin-3-amine]"
,> 10,,> 10,E/F,E/F,"COc1cc(C(=O)N2C[C@H](N)CC[C@H]2CO)cc2nc(-c3cc4cccnc4n3CC3CC3)n(C)c12 (single isomer, unassigned) [Compound I-226]"
10 to 100,> 10,10 to 100,> 10,,,COc1cc(C(=O)N2CC3(CCC3N)C2)cc2nc(-c3cc4cccnc4n3CC3CC3)n(C)c12 (stereo not shown) [Compound I-85]
1 to 10,1 to 5,< 1,< 1,,,COc1ccc2cc(-c3nc4cc(C(=O)N5CC[C@H](OC)[C@H](N)C5)ccc4n3C)n(CC3CC3)c2n1 [Compound I-130]
< 1,< 1,< 1,< 1,,,"CCn1c(-c2nc3cc(C(=O)N4C[C@H]5CC[C@@H]4[C@@H]5N)cc(OC)c3n2C)cc2ccc(C(F)F)nc21 [Compound I-189, (1R,4R,7R)-2-{2-[6-(Difluoromethyl)-1-ethyl-1H-pyrrolo[2,3-b]pyridin-2-yl]-7-methoxy-1-methyl-1H-1,3-benzodiazole-5-carbonyl}-2-azabicyclo[2.2.1]heptan-7-amine]"
1 to 10,1 to 5,1 to 10,1 to 5,,,"Cn1c(-c2cc3cccnc3n2CC2CC2)nc2cc(C(=O)N3CCC[C@@H](N)C3)cc(CO)c21 [Compound I-128, {5-[(3R)-3-aminopiperidine-1-carbonyl]-2-[1-(cyclopropylmethyl)-1H-pyrrolo[2,3-b]pyridin-2-yl]-1-methyl-1H-1,3-benzodiazol-7-yl}methanol]"
< 1,< 1,< 1,< 1,,,CCn1c(-c2nc3cc(C(=O)N4C[C@H](N)C[C@@H](F)C4)cc(OC)c3n2C[C@H]2C[C@@](C)(OC)C2)cc2ccc(OC)nc21 [Compound I-205]
10 to 100,> 10,10 to 100,> 10,,,CCn1c(-c2cc3cccnc3n2CC2CC2)nc2cc(C(=O)N3CC[C@H]4CCN[C@H]4C3)cc(OC)c21 [Compound I-22]
1 to 10,1 to 5,1 to 10,1 to 5,,,Cn1c(-c2cc3cccnc3n2CC2CC2)nc2cc(C(=O)N3CCC[C@@H](N)C3)c(F)cc21 [Compound I-172]
< 1,< 1,< 1,< 1,,,CCn1c(-c2cc3ccc(OC)nc3n2CC2CC2)nc2cc(C(=O)N3CCC[C@@H](N)C3)cc(OC)c21 [Compound I-106]
< 1,< 1,< 1,< 1,,,COc1cc(C(=O)N2C[C@H]3CC[C@@H]2[C@@H]3N)cc2nc(-c3cc4cc(F)cnc4n3CC3CC3)n(C)c12 [Compound I-222]
10 to 100,> 10,1 to 10,5 to 10,,,Cn1c(-c2cc3cccnc3n2CC2CC2)nc2cc(C(=O)N3CC[C@H](F)[C@@H](N)C3)ccc21 [Compound I-54]
1 to 10,5 to 10,1 to 10,5 to 10,,,CCn1c(-c2nc3cc(C(=O)N4CCC[C@@H](N)C4)c(F)cc3n2C)cc2cccnc21 [Compound I-171]

"IC50 [1, 3] [µM]",IC50 ([1]; read-out: mPAD4 RFMS IC50) [µM],"IC50 [2, 4] [µM]",IC50 ([2]; read-out: hPAD4 RFMS IC50) [µM],mPAD4 RFMS pIC50 ([1]; pIC50=−log(IC50)),hPAD4 RFMS pIC50 ([2]; pIC50=−log(IC50)),Structure (SMILES)
< 1,< 1,< 1,< 1,,,CCn1c(-c2nc3cc(C(=O)N4CCC[C@@H](N)C4)cc(OC)c3n2C[C@H]2C[C@@](C)(OC)C2)cc2ccc(OC)nc21 [Compound I-204]
,,1 to 10,1 to 5,,,"CCn1c(-c2nc3cc(C(=O)N4CCC5CCNC5C4)cc(OC)c3n2C)cc2cccnc21 (stereo not shown) [Compound I-13, 2-{1-ethyl-1H-pyrrolo[2,3-b]pyridin-2-yl}-7-methoxy-1-methyl-5-{octahydro-1H-pyrrolo[2,3-c]pyridine-6-carbonyl}-1H-1,3-benzodiazole]"
,,< 1,< 1,,,COc1cc(C(=O)N2C[C@H]3CC[C@@H]2[C@@H]3N)cc2nc(-c3cc4ccc(C#N)cc4n3CC3CC3)n(C)c12 [Compound I-371]
,,1 to 10,5 to 10,,,"COc1cc(C(=O)N2CCC3CCNC3C2)cc2nc(-c3cc4cncnc4n3CC3CC3)n(C)c12 (stereo not shown) [Compound I-15, 2-[7-(cyclopropylmethyl)-7H-pyrrolo[2,3-d]pyrimidin-6-yl]-7-methoxy-1-methyl-5-{octahydro-1H-pyrrolo[2,3-c]pyridine-6-carbonyl}-1H-1,3-benzodiazole]"
,,10 to 100,> 10,,,Cn1c(-c2cc3cccnc3n2CC2CC2)nc2cc(C(=O)N3CCC[C@H]4NCC[C@H]43)ccc21 [Compound I-60]
,,10 to 100,> 10,,,"COc1cc(C(=O)N2CC[C@@H]3CCN[C@@H]3C2)cc2nc(-c3cc4cncnc4n3CC3CC3)n(C)c12 [Compound I-4, 5-[(3aS,7aS)-octahydro-1H-pyrrolo[2,3-c]pyridine-6-carbonyl]-2-[7-(cyclopropylmethyl)-7H-pyrrolo[2,3-d]pyrimidin-6-yl]-7-methoxy-1-methyl-1H-1,3-benzodiazole]"
,,> 100,> 10,,,Cn1c(-c2cc3cccnc3n2CC2CC2)nc2cc(C(=O)N3CCCC4(CCNC4)C3)ccc21 (stereo not shown) [Compound I-46]
,,< 1,< 1,,,COc1cc(C(=O)N2C[C@H]3CC[C@@H]2[C@@H]3N)cc2nc(-c3cc4ccc(NCCC5CC5)cc4n3CC3CC3)n(C)c12 [Compound I-375]
,,< 1,< 1,,,COc1cc(C(=O)N2C[C@H]3CCC2[C@H]3N)cc2nc(-c3cc4cc(/C=C/C5CC5)ccc4n3CC3CC3)n(C)c12 [Compound I-357]
,,10 to 100,> 10,,,Cn1c(-c2cc3cccnc3n2CC2CC2)nc2cc(C(=O)N3CC(N)CC(F)(F)C3)ccc21 (stereo not shown) [Compound I-51]
,,< 1,< 1,,,Cn1c(-c2cc3ccccc3n2CC2CC2)nc2cc(C(=O)N3CC[C@H]4CCN[C@H]4C3)ccc21 [Compound I-7]
,,10 to 100,> 10,,,COc1cc(C(=O)N2CC[C@H](F)[C@@H](N)C2)cc2nc(-c3cc4cccnc4n3CC3CC3)n(C)c12 [Compound I-58]
,,> 100,> 10,,,Cn1c(-c2cc3cccnc3n2CC2CC2)nc2cc(C(=O)N3CC4CC3CN4)ccc21 (stereo not shown) [Compound I-37]
,,1 to 10,1 to 5,,,COCCn1c(-c2nc3cc(C(=O)N4C[C@H](N)CC[C@@H]4C)cc(OC)c3n2C)cc2cccnc21 (racemic) [Compound I-170]
,,10 to 100,> 10,,,CCn1c(-c2nc3cc(C(=O)N4CC[C@@H]5CCN[C@@H]5C4)ccc3n2C)cc2cccnc21 [Compound I-5]
,,10 to 100,> 10,,,"CCn1c(-c2nc3cc(C(=O)N4CC[C@H]5CCN[C@H]5C4)cc(OC)c3n2C)cc2cccnc21 (single isomer, unassigned) [Compound I-14]"
,,< 1,< 1,,,"COc1ccc2cc(-c3nc4cc(C(=O)N5C[C@@H](N)C[C@H](F)C5)cc(OC)c4n3C)n(CC3CC3)c2n1 [Compound I-356, ((3S,5S)-3-amino-5-fluoropiperidin-1-yl)(2-(1-(cyclopropylmethyl)-6-methoxy-1H-pyrrolo[2,3-b]pyridin-2-yl)-7-methoxy-1-methyl-1H-benzo[d]imidazol-5-yl)methanone]"
,,< 1,< 1,,,COc1cc(C(=O)N2C[C@H]3CCC2[C@H]3N)cc2nc(-c3cc4ccc(/C=C/Cc5ccccc5)cc4n3CC3CC3)n(C)c12 [Compound I-366]

Structure (SMILES),"IC50 [1, 3] [µM]",IC50 ([1]; read-out: mPAD4 RFMS IC50) [µM],"IC50 [2, 4] [µM]",IC50 ([2]; read-out: hPAD4 RFMS IC50) [µM],mPAD4 RFMS pIC50 ([1]; pIC50=−log(IC50)),hPAD4 RFMS pIC50 ([2]; pIC50=−log(IC50))
Cn1c(-c2cc3cccnc3n2CC2CC2)nc2cc(C(=O)N3C4CCC3CC(N)C4)ccc21 (stereo not shown) [Compound I-47],,,> 100,> 10,,
